Reference: patent US20100280024A1, “RENIN INHIBITORS” (priority 2007, published 2010)
Where a name gives a salt, the structure may show the parent alone.

Molecular target: T1, Renin (Homo sapiens, UniProt P00797)
T1 sequence (P00797 67-406): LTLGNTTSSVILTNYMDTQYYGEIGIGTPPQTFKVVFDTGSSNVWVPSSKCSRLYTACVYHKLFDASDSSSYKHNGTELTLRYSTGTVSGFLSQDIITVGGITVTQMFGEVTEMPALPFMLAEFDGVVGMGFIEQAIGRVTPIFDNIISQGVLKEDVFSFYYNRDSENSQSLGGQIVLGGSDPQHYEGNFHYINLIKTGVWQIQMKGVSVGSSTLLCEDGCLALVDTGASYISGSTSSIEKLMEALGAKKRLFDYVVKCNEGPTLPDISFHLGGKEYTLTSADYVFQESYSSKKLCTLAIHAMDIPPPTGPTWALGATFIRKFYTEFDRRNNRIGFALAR
Assay: In-vitro renin inhibition assay (modified Cayman renin inhibitor screening assay, fluorescence)
Assay type: biochemical
Parameters: purchased Cayman 10006270
Details: 37° C., 30 mins; for inhibition at 0.1 µM: read-out: Renin inhibition (percent inhibition of renin activity) at 0.1 μM; for inhibition at 1 µM: compound concentration 1 μM, read-out: Renin inhibition (percent inhibition of renin activity) at 1 μM
Description: In-Vitro Renin Inhibition Assay
The enzymatic in vitro assay was performed in 96 well polypropylene plate (Nunc), using a modified Renin inhibitor screening assay protocol (Cayman, cat no: 10006270). The reaction system comprised assay buffer containing 50 mM Tris-HCL, pH=8.0 & 100 mM sodium chloride, human recombinant renin (1:20 diluted with fixed activity), synthetic renin substrates (9.5 μM) and different concentrations of renin inhibitors in DMSO in a total reaction system of 100 μl. The entire incubation mixture were incubated at 37° C. for 30 mins and the fluorescence was read in kinetic mode using excitation wavelengths of 335-345 nm and emission wavelengths of 485-510 nm. Enzyme inhibition was determined by percent inhibition of renin activity.

| SMILES | inhibition at 0.1 µM (compound concentration 0.1 μM) | inhibition at 1 µM | Renin inhibition (percent inhibition of renin activity) at 0.1 μM (compound concentration 0.1 μM) |
| --- | --- | --- | --- |
| Cc1cc(Cl)c(OCCOc2ccc(CC(CN)C(=O)N3CCCc4ccccc43)cc2)c(Cl)c1 (stereo not shown) [Example 2, 3-Amino-2-{4-[2-(2,6-dichloro-4-methyl-phenoxy)-ethoxy]-benzyl}-1-(3,4-dihydro-2H-quinolin-1-yl)-propan-1-one] | 90.5% | 97.3% |  |
| Cc1cc(Cl)c(OCCOc2ccc(CC(CN)C(=O)N3CCOc4ccccc43)cc2)c(Cl)c1 (stereo not shown) [Example 4, 3-Amino-2-{4-[2-(2,6-dichloro-4-methyl-phenoxy)-ethoxy]-benzyl}-1-(2,3-dihydro-benzo[1,4]oxazin-4-yl)-propan-1-one] |  | 73.5% |  |
| Cc1cc(Cl)c(OCCOc2ccc(CC(CN)C(=O)N3CCCc4ccc(C)c(C)c43)cc2)c(Cl)c1 (stereo not shown) [Example 9, 3-Amino-2-{4-[2-(2,6-dichloro-4-methyl-phenoxy)-ethoxy]-benzyl}-1-(7,8-dimethyl-3,4-dihydro-2H-quinolin-1-yl)-propan-1-one] | 80.5% | 98.1% |  |
| Cc1cc(Cl)c(OCCOc2ccc(CC(CN)C(=O)N3CCCc4cccc(F)c43)cc2)c(Cl)c1 (stereo not shown) [Example 11, 3-Amino-2-{4-[2-(2,6-dichloro-4-methyl-phenoxy)-ethoxy]-benzyl}-1-(8-fluoro-3,4-dihydro-2H-quinolin-1-yl)-propan-1-one] |  | 68.5% |  |
| Cc1cc(Cl)c(OCCOc2ccc(CC(CN)C(=O)N3CCCc4cc(C)ccc43)cc2)c(Cl)c1 (stereo not shown) [Example 16, 3-Amino-2-{4-[2-(2,6-dichloro-4-methyl-phenoxy)-ethoxy]-benzyl}-1-(6-methyl-3,4-dihydro-2H-quinolin-1-yl)-propan-1-one] | 52.6% | 87.4% |  |
| COc1cc2c(cc1OC)CN(C(=O)C(CN)Cc1ccc(OCCOc3c(Cl)cc(C)cc3Cl)cc1)CC2 (stereo not shown) [Example 17, 2-Aminomethyl-3-{4-[2-(2,6-dichloro-4-methyl-phenoxy)-ethoxy]-phenyl}-1-(6,7-dimethoxy-3,4-dihydro-1H-isoquinolin-2-yl)-propan-1-one] |  | 53.6% |  |
| Cc1cc(Cl)c(OCCOc2ccc(CC(CN)C(=O)N3CCCc4cc(F)ccc43)cc2)c(Cl)c1 (stereo not shown) [Example 20, 3-Amino-2-{4-[2-(2,6-dichloro-4-methyl-phenoxy)-ethoxy]-benzyl}-1-(6-fluoro-3,4-dihydro-2H-quinolin-1-yl)-propan-1-one] | 68% | 96.1% |  |
| Cc1cc(Cl)c(OCCOc2ccc(CC(CN)C(=O)N3CCCC3)cc2)c(Cl)c1 (stereo not shown) [Example 23, 3-Amino-2-{4-[2-(2,6-dichloro-4-methyl-phenoxy)-ethoxy]-benzyl}-1-pyrrolidin-1-yl-propan-1-one] | 59.5% | 81.1% |  |
| Cc1cc(Cl)c(OCCOc2ccc(CC(CN)C(=O)N3CCOCC3)cc2)c(Cl)c1 (stereo not shown) [Example 25, 3-Amino-2-{4-[2-(2,6-dichloro-4-methyl-phenoxy)-ethoxy]-benzyl}-1-morpholin-4-yl-propan-1-one hydrochloride] | 45.1% | 76.4% |  |
| COC(=O)[C@H]1CCCN1C(=O)C(CN)Cc1ccc(OCCOc2c(Cl)cc(C)cc2Cl)cc1.Cl (stereo partly drawn) [Example 29, D-(2-Aminomethyl-3-{4-[2-(2,6-dichloro-4-methyl-phenoxy)-ethoxy]-phenyl}-propionyl)-pyrrolidine-2-carboxylic acid methyl ester hydrochloride] |  |  | 90.3 |
| COC1CCCN(C(=O)C(CN)Cc2ccc(OCCOc3c(Cl)cc(C)cc3Cl)cc2)C1 (stereo not shown) [Example 30, 2-Aminomethyl-3-{4-[2-(2,6-dichloro-4-methyl-phenoxy)-ethoxy]-phenyl}-1-(3-methoxy-piperidin-1-yl)-propan-1-one hydrochloride] | 92.8% | 92.9% |  |
| NCC(Cc1ccc(OCCOc2c(F)cccc2F)cc1)C(=O)N1CCCc2cc(F)ccc21 (stereo not shown) [Example 35, 3-Amino-2-{4-[2-(2,6-difluoro-phenoxy)-ethoxy]-benzyl}-1-(6-fluoro-3,4-dihydro-2H-quinolin-1-yl)-propan-1-one hydrochloride] | 26.3% |  |  |
| NCC(Cc1ccc(OCCOc2ccc(Cl)cc2Cl)cc1)C(=O)N1CCCc2cc(F)ccc21 (stereo not shown) [Example 37, 3-Amino-2-{4-[2-(2,4-dichloro-phenoxy)-ethoxy]-benzyl}-1-(6-fluoro-3,4-dihydro-2H-quinolin-1-yl)-propan-1-one hydrochloride] | 36.4% |  |  |
| NCC(Cc1ccc(OCCOc2ccc(Cl)cc2F)cc1)C(=O)N1CCCc2cc(F)ccc21 (stereo not shown) [Example 39, 3-Amino-2-{4-[2-(4-chloro-2-fluoro-phenoxy)-ethoxy]-benzyl}-1-(6-fluoro-3,4-dihydro-2H-quinolin-1-yl)-propan-1-one hydrochloride] | 36.3% |  |  |
| NCC(Cc1ccc(OCCOc2ccc(Cl)cc2F)cc1)C(=O)N1CCCc2cc(C(F)(F)F)ccc21 (stereo not shown) [Example 40, 3-Amino-2-{4-[2-(4-chloro-2-fluoro-phenoxy)-ethoxy]-benzyl}-1-(6-trifluoromethyl-3,4-dihydro-2H-quinolin-1-yl)-propan-1-one hydrochloride] | 38.9% |  |  |

Now from value to molecule:

| inhibition at 0.1 µM (compound concentration 0.1 μM) | inhibition at 1 µM | Renin inhibition (percent inhibition of renin activity) at 0.1 μM (compound concentration 0.1 μM) | SMILES |
| --- | --- | --- | --- |
|  | 79.6% |  | Cc1cc(Cl)c(OCCOc2ccc(CC(CN)C(=O)N3CCCc4cc(Cl)ccc43)cc2)c(Cl)c1 (stereo not shown) [Example 5, 3-Amino-1-(6-chloro-3,4-dihydro-2H-quinolin-1-yl)-2-{4-[2-(2,6-dichloro-4-methyl-phenoxy)-ethoxy]-benzyl}-propan-1-one] |
|  | 86.5% |  | Cc1cc(Cl)c(OCCOc2ccc(CC(CN)C(=O)N3CCCc4cc(Br)ccc43)cc2)c(Cl)c1 (stereo not shown) [Example 6, 3-Amino-1-(6-bromo-3,4-dihydro-2H-quinolin-1-yl)-2-{4-[2-(2,6-dichloro-4-methyl-phenoxy)-ethoxy]-benzyl}-propan-1-one] |
| 32.1% | 96.5% |  | COc1ccc2c(c1)CCCN2C(=O)C(CN)Cc1ccc(OCCOc2c(Cl)cc(C)cc2Cl)cc1 (stereo not shown) [Example 13, 3-Amino-2-{4-[2-(2,6-dichloro-4-methyl-phenoxy)-ethoxy]-benzyl}-1-(6-methoxy-3,4-dihydro-2H-quinolin-1-yl)-propan-1-one] |
| 41.8% | 87% |  | Cc1cc(Cl)c(OCCOc2ccc(CC(CN)C(=O)N3CCCc4cc(Cl)cc(Cl)c43)cc2)c(Cl)c1 (stereo not shown) [Example 14, 3-Amino-1-(6,8-dichloro-3,4-dihydro-2H-quinolin-1-yl)-2-{4-[2-(2,6-dichloro-4-methyl-phenoxy)-ethoxy]-benzyl}-propan-1-one] |
| 99.2% | 98.7% |  | Cc1cc(Cl)c(OCCOc2ccc(CC(CN)C(=O)N3CCCc4cc(C(F)(F)F)ccc43)cc2)c(Cl)c1 (stereo not shown) [Example 15, 3-Amino-2-{4-[2-(2,6-dichloro-4-methyl-phenoxy)-ethoxy]-benzyl}-1-(6-trifluoromethyl-3,4-dihydro-2H -quinolin-1-yl)-propan-1-one] |
|  | 65.8% |  | Cc1cc(Cl)c(OCCOc2ccc(CC(CN)C(=O)N3CCC(C)CC3)cc2)c(Cl)c1 (stereo not shown) [Example 18, 3-Amino-2-{4-[2-(2,6-dichloro-4-methyl-phenoxy)-ethoxy]-benzyl}-1-(4-methyl-piperidin-1-yl)-propan-1-one] |
| 73.8% |  |  | Cc1cc(Cl)c(OCCOc2ccc(CC(CN)C(=O)N3CCCc4cc(OCC(F)(F)F)ccc43)cc2)c(Cl)c1 (stereo not shown) [Example 28, 3-Amino-2-{4-[2-(2,6-dichloro-4-methyl-phenoxy)-ethoxy]-benzyl}-1-[6-(2,2,2-trifluoro-ethoxy)-3,4-dihydro-2H-quinolin-1-yl]-propan-1-one hydrochloride] |
| 92.9% | 89.2% |  | Cc1ccc(OCCOc2ccc(CC(CN)C(=O)N3CCCc4cc(C(F)(F)F)ccc43)cc2)c(Cl)c1 (stereo not shown) [Example 33, 3-Amino-2-{4-[2-(2-chloro-4-methyl-phenoxy)-ethoxy]-benzyl}-1-(6-trifluoromethyl-3,4-dihydro-2H-quinolin-1-yl)-propan-1-one] |
| 31.2% |  |  | NCC(Cc1ccc(OCCOc2c(F)cccc2F)cc1)C(=O)N1CCCc2cc(C(F)(F)F)ccc21 (stereo not shown) [Example 34, 3-Amino-2-{4-[2-(2,6-difluoro-phenoxy)-ethoxy]-benzyl}-1-(6-trifluoromethyl-3,4-dihydro-2H-quinolin-1-yl)-propan-1-one hydrochloride] |
| 45% |  |  | NCC(Cc1ccc(OCCOc2ccc(F)cc2F)cc1)C(=O)N1CCCc2cc(C(F)(F)F)ccc21 (stereo not shown) [Example 36, 3-Amino-2-{4-[2-(2,4-difluoro-phenoxy)-ethoxy]-benzyl}-1-(6-trifluoromethyl-3,4-dihydro-2H-quinolin-1-yl)-propan-1-one hydrochloride] |
| 35.4% |  |  | NCC(Cc1ccc(OCCOc2ccc(Cl)cc2Cl)cc1)C(=O)N1CCCc2cc(C(F)(F)F)ccc21 (stereo not shown) [Example 38, 3-Amino-2-{4-[2-(2,4-dichloro-phenoxy)-ethoxy]-benzyl}-1-(6-trifluoromethyl-3,4-dihydro-2H-quinolin-1-yl)-propan-1-one hydrochloride chloride] |
